# Measurements reported in patent US9845284B1, “Method of obtaining complex acidic salts of divalent metals and dicarboxylic acids” (priority 2016, dated 2017).
# Assay: Incorporation of 13C-labeled dicarboxylic acid anions in metabolic processes, determined by exhalation of 13CO2 in rats
# Conditions: aqueous solution by pipette, amount equivalent to 1 mg of acid anion, air collected 12 hours after administration, 13C-labeled compounds
# Method: The signal incorporation in metabolism was determined by exhalation of the labeled ^13C atom in the form of ^13CO2. The experiment was conducted as follows: aqueous solutions, in the amounts equivalent to 1 mg of the acids anions they contained, were administered to rats (groups of 8 individuals, each rat weighing 225-250 g) with a pipette: amber acid, sodium fumarate (fumaric acid is almost insoluble in water), aspartic acids, Ca(SucH)2, Mg(SucH)2.4H2O, Mg(AspH)2.4H2O, Zn(FumH)2.0.5H2O, Zn(FumH)2.H2O. The animals were then quickly placed in a hermetically sealed chamber. The air from the chamber was sampled in the same amount as it was pumped in the chamber. […] After that, the mass % of 13C administer was calculated in the exhaled air.
row,SMILES,mass % of 13C administered found in the exhaled air (as 13CO2) [%]
1,"O=C([O-])/C=C/C(=O)[O-].[Na+].[Na+] [sodium fumarate, reference compound]",97.8
2,"N[C@@H](CC(=O)[O-])C(=O)O.N[C@@H](CC(=O)[O-])C(=O)O.O.O.O.O.[Mg+2] [Mg(AspH)2.4H2O, Acidic Magnesium Aspartate]",47.4
3,"O.O.O.O.O=C([O-])CCC(=O)O.O=C([O-])CCC(=O)O.[Mg+2] [Mg(SucH)2.4H2O, Acidic Magnesium Succinate]",47.7
